Laboratory results taken from US4906622A, “Optically active 2-chloro-12-(3-dimethylamino-2-methyl-propyl)-12H-dibenzo[d.g] [1,3,6] dioxazocines and a process for the preparation thereof” (Egis Gyogyszergyar, priority 1985, dated 1990).
Counter-ions that a name gives are not always drawn. Like-named read-outs stand apart in the source and are kept apart here.

What was measured:
[1] = cited from earlier work
[2] = tested on: tremor induced by tremorine; test: animal or person; assay type: in vivo, mice; conditions: for ED50: Mus musculus; for ED50 / T.I. (therapeutic index) (Table 1) / T.I. (therapeutic index) (Table 2): po; for ED50 p.o., inhibition of tremor induced by tremorine (Table 1) / ED50 p.o., inhibition of tremor induced by tremorine (Table 2): hydrochloride
Description: (§1) The hydrochloride of the racemic compound, the hydrochloride of the (-)-isomer [compound of Example 6; the salt has (+) rotation] and the hydrochloride of the (+)-isomer [compound of Example 7; the salt has (-) rotation] were tested for acute toxicity on mice with peroral treatment and for the inhibition of tremor induced by tremorine (the latter test characterizes the action against Parkinson's disease). In the latter case, the inhibition of tremor induced by tremorine [1,1'-(2-butynylene)-dipyrrolidine] administered intraperitoneally at a dosage of 20 mg/kg was tested on mice as described in Science, 124, 79 (1956). The compound to be examined was given perorally to a population of 50 mice one hour prior to the administration of tremorine, and the tremor developed was evaluated 45 minutes after the administration of tremorine.
Since a lower population of mice was used, less exact values of ED50 were obtained for the compounds tested. Thus, the therapeutic index calculated for the racemic compound is lower by a factor of about 2.4 than the value given in U.S. Pat. No. 4 4,208,410. However, the data obtained under identical test circumstances on a relatively low number of test animals can be compared with each other.
(§2) To make sure that no contradiction exists between the data of Table I on the one hand, and the data of U.S. Pat. No. 4,208,410 on the other hand, the above tests was repeated using a population of 500 mice for each compound tested.

[3] = Acute toxicity on mice with peroral treatment; assay type: in vivo; conditions: mouse, in vivo, po
Description: as §1, §2

[4] = Local anaesthetic activity; assay type: in vivo; conditions: primary tests / detailed tests
mice = test: Acute toxicity on mice with peroral treatment; assay type: in vivo; conditions: for LD50 p.o. (Table 1): Table 1, hydrochloride; for LD50 p.o. (Table 2): repeated test, population of 500 mice for each compound, hydrochloride
Description: as §1, §2

[5] = population of 500 mice, U.S. Pat. No. 4,208,410
[6] = p.o. one hour before tremorine 20 mg/kg i.p., evaluated 45 minutes after tremorine, population of 50 mice
[7] = repeated test, population of 500 mice for each compound

CC(CN(C)C)CN1c2ccccc2OCOc2ccc(Cl)cc21 (racemic) [2-chloro-12-(3-dimethylamino-2-methylpropyl)-12H-dibenzo[d,g][1,3,6]-dioxazocine]
local anaesthetic and antiparkinsonic activity ([1]; known from U.S. Pat. No. 4,208,410): has local anaesthetic and antiparkinsonic activity
ED50, antiparkinsonic activity [1, 5]: 11 mg/kg
therapeutic index [1, 5]: 25

CC(CN(C)C)CN1c2ccccc2OCOc2ccc(Cl)cc21 (racemic) [racemic, reference compound]
ED50 ([2]; p.o. one hour before tremorine 20 mg/kg i.p., evaluated 45 minutes after tremorine, population of 50 mice, read-out: ED50 p.o., inhibition of tremor induced by tremorine (Table 1)): 25 mg/kg
ED50 ([2]; repeated test, population of 500 mice for each compound, read-out: ED50 p.o., inhibition of tremor induced by tremorine (Table 2)): 10.5 mg/kg
factor by which the therapeutic index is lower than the value given in U.S. Pat. No. 4,208,410 ([2]; mouse, in vivo): about 2.4
T.I. (therapeutic index) (Table 1) ([2]; mouse, in vivo): 10.8
T.I. (therapeutic index) (Table 2) ([2]; mouse, in vivo): 25.7
LD50 ([3]; Table 1, read-out: LD50 p.o. (Table 1)): 270 mg/kg
LD50 ([3]; repeated test, population of 500 mice for each compound, read-out: LD50 p.o. (Table 2)): 270 mg/kg
local anaesthetic activity [4]: has local anaesthetic activity, detailed tests have not shown any therapeutically valuable effect

CC(CN(C)C)CN1c2ccccc2OCOc2ccc(Cl)cc21 (single isomer, unassigned; (+)) [Example 6, (+)-2-chloro-12-(3-dimethylamino-2-methylpropyl)-12H-dibenzo[d,g][1,3,6]dioxazocine hydrochloride]
T.I. (therapeutic index) (Table 1) ([2]; mouse, in vivo): 72.7
T.I. (therapeutic index) (Table 2) ([2]; mouse, in vivo): 168.4
ED50 p.o., inhibition of tremor induced by tremorine (Table 1) [2, 6]: 2.2 mg/kg
ED50 p.o., inhibition of tremor induced by tremorine (Table 2) [2, 7]: 0.95 mg/kg
LD50 p.o. (Table 1) (mice): 160 mg/kg
LD50 p.o. (Table 2) (mice): 160 mg/kg

CC(CN(C)C)CN1c2ccccc2OCOc2ccc(Cl)cc21 (single isomer, unassigned; (-)) [Example 7, (-)-2-Chloro-12-(3-dimethylamino-2-methylpropyl)-12H-dibenzo[d,g][1,3,6]dioxazocine hydrochloride]
T.I. (therapeutic index) (Table 1) ([2]; mouse, in vivo): 65.7
T.I. (therapeutic index) (Table 2) ([2]; mouse, in vivo): 160.8
ED50 p.o., inhibition of tremor induced by tremorine (Table 1) [2, 6]: 7 mg/kg
ED50 p.o., inhibition of tremor induced by tremorine (Table 2) [2, 7]: 2.86 mg/kg
LD50 p.o. (Table 1) (mice): 460 mg/kg
LD50 p.o. (Table 2) (mice): 460 mg/kg
